Data reported in patent US8642612B2, “Nicotinic desensitizers and methods of selecting, testing, and using them” (Potomac Pharmaceuticals, Inc., priority 2006, dated 2014).
Where two headings read alike, the source gives them in different places.

How the values were obtained:
human α4β2 nAChRs [1] = biological target: T1, human α4β2 nAChRs (Homo sapiens, UniProt P17787+P43681); assay: Inhibition of nicotine-stimulated 86Rb+ efflux, cells expressing human α4β2 nAChRs; assay type: cell-based
T1 construct: expressed in transfected cells; the efflux text says only stably transfected cells
Protocol: (§1) In brief, cells were plated into 24-well plates coated with poly-D-lysine. […] The cells were then incubated in growth medium (0.5 ml/well) containing ^86Rb^+ (2 μCi/ml) for 4 hour at 37° C. The loading mixture was then aspirated, and the cells were washed four times with 1 ml buffer (15 mM HEPES, 140 mM NaCl, 2 mM KCl, 1 mM MgSO4, 1.8 mM CaCl2, 11 mM Glucose, pH 7.4). One ml of buffer with or without compounds to be tested was then added to each well. After incubation for 2 min, the assay buffer was collected for measurements of ^86Rb^+ released from the cells. Cells were then lysed by adding 1 ml of 100 mM NaOH to each well, and the lysate was collected for determination of the amount of ^86Rb^+ that was in the cells at the end of the efflux assay. Radioactivity of assay samples and lysates was measured by liquid scintillation counting. Total loading (cpm) was calculated as the sum of the assay sample and the lysate of each well. The amount of ^86Rb^+ efflux was expressed as a percentage of […] loaded. […] IC50 values were determined by nonlinear least-squares regression analyses (GraphPad, San Diego, Calif.).

rat α3β4 nAChRs [2] = biological target: T2, rat α3β4 nAChRs (Rattus norvegicus, UniProt P04757+P12392); assay: [3H]epibatidine competition binding, rat α3β4 nAChRs expressed in HEK cells
T2 construct: expressed in transfected cells; the efflux text says only stably transfected cells
Protocol: (§2) Briefly, cultured cells at >80% confluence were removed from their flasks (80 cm^2) with a disposable cell scraper and placed in 10 ml of 50 mM Tris HCl buffer (pH 7.4, 4° C.). The cell suspension was centrifuged at 10,000×g for 5 min and the pellet was collected. For cells treated chronically with nicotinic agonists during culturing, the pellet was washed two more times by centrifugation in fresh buffer to remove residual drug. The cell pellet was then homogenized in 10 ml buffer with a polytron homogenizer (Model PT2100, 12 mm aggregate, 26,000 rpm, 20 seconds) and centrifuged at 36,000 g for 10 min at 4° C. The membrane pellet was resuspended in fresh buffer, and aliquots of the membrane preparation equivalent to 30 to 200 μg protein were used for binding assays. […] Bound and free ligands were separated by vacuum filtration through Whatman GF/C filters treated with 0.5% polyethylenimine. The filter-retained radioactivity was measured by liquid scintillation counting. Specific binding was defined as the difference between total binding and nonspecific binding. Data from saturation and competition binding assays were analyzed using Prism 4 (GraphPad Software, San Diego, Calif.).
(§3) All ligand binding assays were carried out using rat or human nAChRs heterologously expressed in human cells or in native rat brain tissues.

rat α3β4 nAChRs [3] = biological target: T2, rat α3β4 nAChRs; assay: Inhibition of nicotine-stimulated 86Rb+ efflux, cells expressing rat α3β4 nAChRs; assay type: cell-based
Protocol: as §1

rat α3β4 nAChRs [4] = biological target: T2, rat α3β4 nAChRs; assay type: cell-based; settings: stimulation of 86Rb+ efflux
Protocol: as §1
(§4) The agonist activities of ligands on nAChRs were assessed by measuring agonist-stimulated ^86Rb^+ efflux from stably transfected cells.

human α4β2 nAChRs [5] = biological target: T1, human α4β2 nAChRs; assay type: cell-based; settings: stimulation of 86Rb+ efflux
Protocol: as §1, §4

rat α4β2 nAChRs [6] = biological target: T3, rat α4β2 nAChRs (Rattus norvegicus, UniProt P09483+P12390); assay: [3H]epibatidine competition binding, rat α4β2 nAChRs expressed in HEK cells
T3 construct: expressed in transfected cells; host or cells: HEK cells (membrane homogenates)
Protocol: as §2, with “drug.” for “drug. The cell pellet was then homogenized in 10 ml buffer with a polytron homogenizer (Model PT2100, 12 mm aggregate, 26,000 rpm, 20 seconds) and centrifuged at 36,000 g for 10 min at 4° C. The membrane pellet was resuspended in fresh buffer, and aliquots of the membrane preparation equivalent to 30 to 200 μg protein were used for binding assays.”
as §3

[7] = cited from earlier work
[8] = cited from earlier work; remark: listed apart in the source
rat α4β2 nAChRs [9] = biological target: T3, rat α4β2 nAChRs; settings: 100 pM [3H]EB; published previously (Xiao and Kellar, 2004); cited from earlier work
[10] = biological target: native nAChRs from rat forebrain (Rattus norvegicus, UniProt P09483+P12390); settings: read-out: Ki Forebrain (rat); 100 pM [3H]EB; published previously (Xiao and Kellar, 2004); cited from earlier work
rat α3β4 nAChRs [11] = biological target: T2, rat α3β4 nAChRs; settings: 100 pM [3H]EB; published previously (Xiao and Kellar, 2004); cited from earlier work
[12] = 10 min pretreatment before nicotine, read-out: Desensitization Potency (IC50(D,10 min), nM) α4β2
[13] = applied simultaneously with nicotine, read-out: Acute Antagonist Potency (IC50(A), nM) α4β2
[14] = 10 min pretreatment before nicotine, read-out: Desensitization Potency (IC50(D,10 min), nM) α3β4
[15] = applied simultaneously with nicotine, read-out: Acute Antagonist Potency (IC50(A), nM) α3β4
[16] = Acute Antagonist Potency (IC50(A), nM) α4β2, applied simultaneously with nicotine
[17] = Desensitization Potency (IC50(D,10 min), nM) α4β2, 10 min pretreatment before nicotine
[18] = Acute Antagonist Potency (IC50(A), nM) α3β4, applied simultaneously with nicotine
[19] = Desensitization Potency (IC50(D,10 min), nM) α3β4, 10 min pretreatment before nicotine
[20] = example tables, species not given, read-out: Equilibrium binding affinity (Ki, nM) α4β2
[21] = example tables, species not given, read-out: Equilibrium binding affinity (Ki, nM) α3β4
[22] = read-out: Acute Antagonist Potency (IC50(A), nM) α3β4

| Structure (SMILES) | IC50 (human α4β2 nAChRs [1]; [12]) | IC50 (human α4β2 nAChRs [1]; [13]) | IC50 (rat α3β4 nAChRs [3]; [14]) | IC50 (rat α3β4 nAChRs [3]; [15]) | Agonist Activity α3β4 (rat α3β4 nAChRs [4]) | Agonist Activity α4β2 (human α4β2 nAChRs [5]) | IC50 (human α4β2 nAChRs [1]; [16]) | IC50 (human α4β2 nAChRs [1]; [17]) | IC50 (rat α3β4 nAChRs [3]; [18]) | IC50 (rat α3β4 nAChRs [3]; [19]) | Ki (rat α4β2 nAChRs [6]; [20]) | Ki (rat α3β4 nAChRs [2]; [21]) | other results |
| --- | --- | --- | --- | --- | --- | --- | --- | --- | --- | --- | --- | --- | --- |
| CN1CCC[C@H]1COc1cncc(C#CCCCCBr)c1 [ZW-109] | 270 nM | > 10000 nM | 2300 nM | 6900 nM | Not detected | Not detected | – | – | – | – | – | – | Ki (rat α3β4 nAChRs [2]): 16000 nM; Ki (rat α4β2 nAChRs [6]): 1.4 nM |
| CN1CCC[C@H]1COc1cncc(C#CC(C)(C)O)c1 [ZW-88] | – | – | – | – | Not detected | Not detected | > 10000 nM | 890 nM | > 10000 nM | > 10000 nM | 2.9 nM | – | Ki (rat α3β4 nAChRs [2]): 61000 nM |
| FCCCCC#Cc1cncc(OC[C@@H]2CCN2)c1 [ZW-104] | – | – | – | – | Not detected | Not detected | > 10000 nM | 5 nM | 9400 nM | 5700 nM | – | 5500 nM | Ki (rat α4β2 nAChRs [6]): 0.21 nM |
| CN1CCC[C@H]1COc1cncc(C#CCCCCF)c1 [ZW-110] | – | – | – | – | Not detected | Not detected | > 10000 nM | 60 nM | > 10000 nM | > 10000 nM | 0.95 nM | 88000 nM | – |
| CN1CCCC1c1cccnc1 (single isomer, unassigned; (-)) [(−)-Nicotine, nicotine] | – | – | – | – | – | – | – | – | – | – | – | – | t1/2 in vivo [7]: > 1 h |
| CCCCC#Cc1cncc(OC[C@@H]2CCCN2C)c1 [ZW-100] | 190 nM | > 10000 nM | 3300 nM | > 10000 nM | Not detected | Not detected | – | – | – | – | 1.4 nM | 40000 nM | – |
| CN1CCC[C@H]1COc1cncc(CCCCCCO)c1 [ZW-91] | – | – | – | – | Not detected | Not detected | > 10000 nM | 1000 nM | > 10000 nM | > 10000 nM | – | – | – |
| c1cnc2cc3c(cc2n1)[C@@H]1CNC[C@H]3C1 [varenicline] | – | – | – | – | – | – | – | – | – | – | – | – | nausea, share of clinical trial participants [8]: ~30% |
| FCCCCC#Cc1cncc(OC[C@@H]2CCCN2)c1 [ZW-102] | – | – | – | – | Not detected | Not detected | > 10000 nM | 120 nM | > 10000 nM | 5400 nM | 0.91 nM | 7600 nM | – |
| CN1CCC[C@H]1COc1cncc(C#CCNC(=O)OC(C)(C)C)c1 [ZW-97] | 22 nM | > 10000 nM | 6900 nM | > 10000 nM | Not detected | Not detected | – | – | – | – | – | – | Ki (rat α3β4 nAChRs [2]): 75000 nM; Ki (rat α4β2 nAChRs [6]): 1.4 nM |
| C#Cc1cncc(OC[C@@H]2CCCN2C)c1 [ZW-87] | – | – | – | – | Not detected | Not detected | > 10000 nM | 50 nM | > 10000 nM | > 10000 nM | 1.6 nM | 6800 nM | – |
| Cc1cc2n(c(=O)c1)CC1CNCC2C1 (stereo not shown) [SKC-2-150] | 250 nM | > 10000 nM | > 10000 nM | – | Not detected | Not detected | – | – | – | – | 1.9 nM | 6700 nM | IC50 (rat α3β4 nAChRs [3]; [22]): > 10000 nM |
| CNc1ccccc1C(=O)OCC#Cc1cncc(OC[C@@H]2CCN2)c1 [Sazetidine-B] | 30 nM | > 10000 nM | 6000 nM | > 10000 nM | Not detected | Not detected | – | – | – | – | – | – | Ki (rat α3β4 nAChRs [2]): 1300 nM; Ki (rat α4β2 nAChRs [6]): 0.22 nM |
| CN1CCC[C@H]1COc1cncc(C#CCO)c1 [ZW-89] | – | – | – | – | Not detected | Not detected | > 10000 nM | 180 nM | > 10000 nM | > 10000 nM | 0.93 nM | 23000 nM | – |
| CN1CCC[C@H]1COc1cncc(C#CCCCCCCCCO)c1 [ZW-93] | – | – | – | – | Not detected | Not detected | 7400 nM | 460 nM | 4600 nM | 3800 nM | 6.1 nM | 66000 nM | – |
| CN1CCC[C@H]1COc1cncc(C#CCCCCO)c1 [ZW-101] | 160 nM | > 10000 nM | 2500 nM | > 10000 nM | Not detected | Not detected | – | – | – | – | – | – | Ki (rat α3β4 nAChRs [2]): 16000 nM; Ki (rat α4β2 nAChRs [6]): 0.67 nM |
| CN1CCC[C@H]1COc1cncc(C#Cc2ccccc2)c1 [ZW-98] | 170 nM | > 10000 nM | 5300 nM | > 10000 nM | Not detected | Not detected | – | – | – | – | 0.51 nM | 8100 nM | – |
| O=c1cc(CO)cc2n1CC1CNCC2C1 (stereo not shown) [SKC-2-203] | 600 nM | > 10000 nM | > 10000 nM | – | Not detected | Not detected | – | – | – | – | 11 nM | 13000 nM | IC50 (rat α3β4 nAChRs [3]; [22]): > 10000 nM |
| CO[C@H]1CC=C2CCN3CCC4=C(CC(=O)OC4)[C@]23C1 [DHβE, dihydro-β-erythroidine] | – | – | – | – | – | – | – | – | – | – | – | – | Ki (rat α4β2 nAChRs [9]): 0.6 ± 0.07 µM; Ki [10]: 0.13 ± 0.05 µM; IC50 (rat α3β4 nAChRs [3]; added simultaneously with 100 μM nicotine, mean ± SEM of 3 to 7 experiments, read-out: IC50 α3β4 nAChRs, 0 min Pretreatment): 160000 nM; IC50 (rat α3β4 nAChRs [3]; read-out: IC50 α3β4 nAChRs, 10 min Pretreatment, 10 min preincubation, then 100 μM nicotine, mean ± SEM of 3 to 7 experiments): 130000 nM; Ki (rat α3β4 nAChRs [11]): 110 µM |
